# Laboratory results: patent US20100119454A1, “Use of the conserved Drosophila NPFR1 system for uncovering interacting genes and pathways important in nociception and stress response” (priority 2008, published 2010)
# B1: NPF: Drosophila neuropeptide F, sole fly homolog of human NPY; synthesized by Quality Controlled Biochemicals (SEQ ID NO: 5) (peptide)
# chain: MCQTMRCILVACVALALLAAGCRVEASNSRPPRKNDVNTMADAYKFLQDLDTYYGDRARVRFGKRGSLMDILRNHEMDNINLGKNANNGGEFARGFNEEEIF
# modifications: Drosophila melanogaster
# Columns and labels:
# [1] = system: D. melanogaster post-feeding larvae; assay: Larval food aversion (migration) assay on soft agar media; type: in vivo, Drosophila melanogaster; details: for triggering larval wandering: 10% in soft agar paste, post-feeding larvae
# Experimental: Behavioral Assays. The food aversion assay was performed in plastic petri dishes (60 mm in diameter). Each apple juice-agar plate contains a mix (ca. 7 ml) of 1 g of Drosophila agar powder (USB, Swampscott, Mass.) and 6 ml apple-juice solution (0.1 g carbohydrates per ml, equivalent to 20% of frozen concentrate). Other soft agar media were made by mixing 1 g agar powder with 6.5 ml of distilled water or solution containing 10% fructose, 10% lactose, 10% sorbitol or 50 μM capsaicin, respectively. The amount of agar powder may require adjustment depending on agar quality. Twenty-five new post-feeding larvae (96 h AEL) were transferred onto a plate. The larvae were allowed to move freely on the medium, and those that crawled onto the plastic surface became less mobile and eventually formed pupae there. The percent of pupae on agar media was scored after 24 hours. All experiments were performed at room temperature except for the temperature shift assay. In these experiments, larvae and food media were pre-incubated at 30° C. for 60 min before the assay. The larvae were subsequently transferred onto the medium and kept at 30° C. All assays were performed in the dark. At least three separate trials were performed per assay.
# Behavioral assays. The migration assay on soft agar media was performed as described previously (Xu et al., 2008), which is hereby incorporated by reference herein in its entirety. Twenty-five postfeeding larvae (96 h AEL) in one plate were allowed to move freely on the medium, and those that crawled onto the plastic surface became less mobile, and eventually formed pupae there. The percentage of pupae on agar media was scored after 24 hours. The clumping assay was also described in the following, which is hereby incorporated by reference herein in its entirety (Wu et al., 2003). Briefly, 45 mm petri dishes containing solid fructose agar (3% agar in a 10% fructose solution) were coated with a thin layer of yeast paste (0.5 g yeast powder in 10% fructose solution). Thirty larvae per plate were allowed to browse for 30 min, and those in clumps were scored immediately. The social burrowing assay was performed on solid agar media containing apple juice or 10% fructose, as described (Wu et al., 2003). All assays, unless stated otherwise, were performed at room temperature in the dark. At least three separate trials were performed per assay.
# [2] = biological target: T1, VR1E600K, a variant of vanilloid receptor TRPV1 (Rattus norvegicus, UniProt O35433, E600K); assay: Capsaicin avoidance (migration) of larvae expressing mammalian TRPV1 in PAIN neurons; type: in vivo, Drosophila melanogaster
# T1 construct: expressed in transfected cells; host or cells: Drosophila melanogaster larvae, PAIN neurons (pain-gal4 x UAS-VR1E600K / UAS-TRPV1 transgenic line, Marella et al. 2006)
# T1 sequence (O35433 whole entry E600K, the tested form may be a part): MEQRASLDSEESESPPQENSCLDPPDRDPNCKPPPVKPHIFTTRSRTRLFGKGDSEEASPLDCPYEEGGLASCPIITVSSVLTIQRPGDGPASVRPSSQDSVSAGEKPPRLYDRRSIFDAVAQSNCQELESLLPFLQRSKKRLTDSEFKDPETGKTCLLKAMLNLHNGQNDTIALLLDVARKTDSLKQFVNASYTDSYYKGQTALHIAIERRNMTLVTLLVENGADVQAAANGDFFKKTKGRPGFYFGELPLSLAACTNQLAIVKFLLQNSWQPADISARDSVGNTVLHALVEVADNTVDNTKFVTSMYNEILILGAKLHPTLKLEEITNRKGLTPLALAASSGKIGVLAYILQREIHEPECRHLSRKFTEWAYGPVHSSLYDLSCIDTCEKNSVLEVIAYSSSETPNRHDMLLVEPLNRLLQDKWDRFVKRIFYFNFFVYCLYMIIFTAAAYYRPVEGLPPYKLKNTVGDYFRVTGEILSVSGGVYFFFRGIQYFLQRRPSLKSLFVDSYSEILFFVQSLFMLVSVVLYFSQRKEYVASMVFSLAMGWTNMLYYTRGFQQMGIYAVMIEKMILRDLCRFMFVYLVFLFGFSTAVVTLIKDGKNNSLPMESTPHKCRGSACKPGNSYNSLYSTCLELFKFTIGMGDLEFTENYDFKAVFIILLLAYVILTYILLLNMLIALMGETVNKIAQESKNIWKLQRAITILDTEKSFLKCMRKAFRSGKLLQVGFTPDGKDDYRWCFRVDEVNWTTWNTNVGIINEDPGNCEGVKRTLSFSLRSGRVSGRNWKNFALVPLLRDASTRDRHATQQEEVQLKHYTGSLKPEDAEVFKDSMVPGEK
# From the text: To provide further evidence that larval wandering behavior represents an aversive response to fructose, pain-gal4 was used to express a mammalian TRP channel protein VR1E600K, a variant of vanilloid receptor TRPV1 responsive to a spicy substance capsaicin from chili peppers (see the following references, which are incorporated herein by reference in their entireties: Caterina, M. J., et al., 1997; Marella, S., et al., 2006; Tobin, D. M., et al., 2002).
# Behavioral assays. The migration assay on soft agar media was performed as described previously (Xu et al., 2008), which is hereby incorporated by reference herein in its entirety. […] The percentage of pupae on agar media was scored after 24 hours. […]
# [3] = biological target: T1, VR1E600K, a variant of vanilloid receptor TRPV1; assay: Two-choice medium preference assay (capsaicin vs capsaicin-free media); type: in vivo
# Experimental: The two-choice medium preference assay was performed on a 2.5% agar plate. The apple juice or water agar paste is the same as described above. 10 μl of 5 mM capsaicin stock solution (in 100% ethanol) or 10 μl ethanol was added to each ml of the agar media. 30 larvae were washed extensively to remove any food particles. They were then placed between the two piles of capsaicin and capsaicin-free media (1 cm in diameter), which are located 4 mm apart. The number of larvae in each medium was recorded after 20 min. A preference index was defined as the fraction of larvae choosing the capsaicin-free medium, minus the fraction of larvae choosing the capsaicin medium.
# rat TRPV1 = biological target: T2, rat TRPV1 (Rattus norvegicus, UniProt O35433, E600K); assay: Calcium imaging of HEK 293 cells (Fluo-4/Fura-red), capsaicin-induced Ca2+ influx; type: cell-based
# T2 construct: expressed in transfected cells; host or cells: HEK293 cells, transient transfection with pcDNA3.1D (Invitrogen) carrying TRPV1 (E600K) cDNA
# T2 sequence (O35433 whole entry E600K): as the sequence (O35433 whole entry E600K, the tested form may be a part) above
# Experimental: Transfection and Calcium imaging of HEK 293 cells. HEK293 cells were maintained under standard conditions (37° C., 5% CO2) in Dulbecco's Modified Eagle's Medium (Mediatech) supplemented with 10% fetal bovine serum, penicillin and streptomycin. pcDNA3.1D directional expression system (Invitrogen) was used to clone and express rat TRPV1 and fly NPFR1 cDNA in HEK293 cells. TRPV1 cDNA was PCR amplified from TRPV1 (E600K) sequence (Marella et al., 2006), using the following primers: 5′ […] 3′ (SEQ ID NO: 11) and 5′ […] 3′ (SEQ ID NO: 12). NPFR1 cDNA was PCR amplified from an NPFR1 cDNA plasmid(34), using two primers: 5′ […] 3′ (SEQ ID NO: 13) and 5′ […] 3′ (SEQ ID NO: 14). HEK293 cells were cultured on 8-well polyornithine-coated chambered coverglasses (Nunc) for 24 hrs before transfection. A suspension of 200 μl of water containing 0.4 μg plasmid DNA and 0.8 μl of Lipofectamine 2000 (Invitrogen) was used for transfection. The amounts of TRPV1 and NPFR1 cNDA used were 20 ng and 200 ng, respectively. pcDNA3.1 vector DNA was supplemented, when necessary, to ensure the equal amount of total DNA per transfection.
# Calcium imaging was performed between 36-42 hours post transfection at 23° C. Cells were loaded with 1 μM Fluo-4 and 2 μM Fura-red (Invitrogen) for 90 min in Hanks' balanced salt solution (HBSS; Gibco), washed once with HBSS, and imaged using a Zeiss Axiovert 200M scope equipped with a Zeiss LSM 510 Meta laser scanning module. Dyes were excited at 488 nm with argon laser. Emission fluorescence was filtered by a BP505-530 and an LP585 filter. Images were collected for 300 s upon capsaicin stimulation at 1 frame s^−1, and analyzed with the SOARS analysis. NPF was synthesized by Quality Controlled Biochemicals. NPF and cyclic nucleotide analogs (Sigma) were pre-incubated at 23° C. with cells for 20-25 min before adding capsaicin.
# [4] = system: pain-expressing sensory neurons; assay: Calcium imaging (yellow cameleon 2.1, SOARS analysis) of larval sensory neurons; type: cell-based, Drosophila melanogaster; details: pain^gal4/+; UAS-YC 2.1/+, 96 h AEL, lactose-lactose alternate, ventral sensory neurons in T2 and T3
# Experimental: Imaging. The live images of second instar larvae (ca. 48 h AEL) expressing DsRed driven by pain-gal4 were obtained using a Leica epifluorescence microscope. The immunofluorescence images were taken by a Zeiss LSM 510 Meta confocal microscope and processed by Zeiss AIM Image Examiner. […] Larvae were dissected in a modified HL6 solution containing lactose (HL6-Lac, 23.7 mM NaCl, 15 mM MgCl2, 24.8 mM KCl, 0.5 mM CaCl2, 10 mM NaHCO3, 5 mM HEPES, 240 mM lactose)^38. An incision was made along the dorsal midline, and the gut and the fat bodies were removed. The tissue was placed ventral side up in HL6 solution on a silicon-coated coverslip (Sylgard 184, DOW Corning Corp., Midland, Mich.) in a Dvorak-Stotler perfusion chamber (Lucas Highland, Chantilly, Va.). A minute amount of cyanoacrylate glue (Nexaband S/C, Abott Laboratories, North Chicago, Ill.) was applied to the edge of the cuticle using a glass micropipette to immobilize the tissue. The imaging was performed on a Zeiss LSM 510 Meta confocal microscope (Carl Zeiss Microimaging, Thornwood, N.Y.). YC2.1 was excited at 458 nm with an argon laser. Emission fluorescence was filtered by a BP 475-525 filter (cyan) and an LP 530 filter (yellow). 256×256 pixel images for ratiometric analysis were collected at 1 frame s^−1. The tissue was perfused at a rate of 8.3 ul s^−1 with HL6-Lac, periodically alternating with a modified HL6 solution containing fructose (HL6-Fru, with 240 mM fructose substituting 240 mM lactose in HL6-Lac), switching at 120-second intervals for a total of 800 seconds. The images were subsequently analyzed with the SOARS method (Statistical Optimization for the Analysis of Ratiometric Signals, Version 1.1) as described in the following references, which are hereby incorporated by reference herein in their entireties (Fan, X., et al., 2007; Broder, J., et al., 2007), using Matlab (MathWorks, Natick, Mass.; also see http://www.engr.uga.edu/research/groups/atslab/Software.html).
# In brief, SOARS is a multivariate statistical optimization procedure performed on both CFP and YFP channels of the FRET imaging data. The analysis results in a set of eigenimages and associated time courses that represent the part of the imaged signal displaying statistically significant spatial correlation and temporal anti-correlation (e.g., the aspects of the signal that are demonstrable due to FRET). These eigenimages represent the spatial distribution of anti-correlated FRET changes in response to sugar stimulation. Because the stimulus was periodic, the time courses were tested for the presence of stimulus-locked activity. To quantify the significance of the periodic part of the FRET response, p-values for a periodic (sinusoidal) response at the stimulus frequency were calculated using multitaper harmonic analysis (a common method for the detection of sinusoids in noisy data) as described in the following references, which are hereby incorporated herein by reference in their entirety. (Thomson 1982; Mitra et al., 1999, Sornborger et al., 2003; Mitra et al., 2008).
# In vivo calcium imaging. […] To quantify the significance of anti-correlated FRET response to fructose stimulation, p-values were calculated for a periodic (sinusoidal) response at the stimulus frequency using multitaper harmonic analysis, a common method for the detection of sinusoids in noisy data (Thomson, 1982), which is hereby incorporated by reference herein in its entirety.
# [5] = HEK 293 cells, cyclic nucleotide analog pre-incubated 20-25 min before capsaicin
molecule,measurement,setting,value
COc1cc(CNC(=O)CCCC/C=C/C(C)C)ccc1O [capsaicin],response of wild type larvae to capsaicin,[1]; wild type Drosophila larvae (no TRPV1),neither attractive nor aversive response
same,migratory response to capsaicin agar paste,"[2]; 400 nM capsaicin, larvae expressing UAS-TRPV1 driven by pain-gal4",migrate away
same,"response to capsaicin-agar medium, control larvae","[2]; 25 μM capsaicin, control larvae (e.g., VR1E600K alone, no driver)",no aversive response
same,migratory response to capsaicin-agar medium,"[2]; 25 μM capsaicin, post-feeding larvae expressing VR1E600K driven by pain-gal4",migrated away
same,"medium preference in two-choice assay, post-feeding larvae",[3]; post-feeding VR1E600K-expressing larvae,preference for capsaicin-free media
same,"medium preference in two-choice assay, feeding larvae",[3]; younger feeding VR1E600K-expressing larvae (74 h AEL),no such preference
same,time to significant Ca2+ influx in response to capsaicin,"rat TRPV1; HEK293 cells transfected with TRPV1 cDNA alone, 400 nM capsaicin",≤ 30 s
OC[C@@H](O)[C@@H](O)[C@H](O)[C@@H](O)CO [sorbitol],triggering larval wandering,[1],not effective
OC[C@H]1O[C@@](CO)(O[C@H]2O[C@H](CO)[C@@H](O)[C@H](O)[C@H]2O)[C@@H](O)[C@@H]1O [sucrose],response of wild type larvae to sugar media,"[1]; 10% sugar media, wild type larvae (FIG. 2B)",aversive
Nc1nc2c(nc(Br)n2[C@@H]2O[C@@H]3COP(=O)(O)O[C@H]3[C@H]2O)c(=O)[nH]1 [8-Br-cGMP],effect on NPFR1 suppression of TRPV1,"rat TRPV1; HEK 293 cells expressing NPFR1 and TRPV1, in the presence of 8-Br-cGMP",significantly enhanced
same,effect on TRPV1 activity,rat TRPV1; [5],slightly reduced
Nc1ncnc2c1nc(Br)n2[C@@H]1O[C@@H]2COP(=O)(O)O[C@H]2[C@H]1O [8-Br-cAMP],effect on TRPV1-mediated Ca2+ influx,rat TRPV1; [5],significantly increased
OC[C@H]1O[C@@H](O[C@H]2[C@H](O)[C@@H](O)C(O)O[C@@H]2CO)[C@H](O)[C@@H](O)[C@H]1O (stereo partly shown) [lactose],triggering larval wandering,[1],not effective
same,Anti-correlated signal,[4],No
B1,effect of NPF on response to capsaicin,"rat TRPV1; HEK293 cells co-transfected with NPFR1 and TRPV1 cDNAs, in the presence of NPF (1 mM per FIG. 15 legend), 400 nM capsaicin",drastically attenuated and delayed responses
same,effect of NPF on TRPV1 activity,rat TRPV1; HEK293 cells transfected with TRPV1 cDNA alone,mild reduction
